The values below come from patent publication US9925193B2, “Thioether derivatives as protein kinase inhibitors” (KTB TUMORFORSCHUNGSGESELLSCHAFT MBH, priority 2012, dated 2018).

SMILES strings stand for the structures.

The target of data set [1] is T1, ALK (Homo sapiens, UniProt Q9UM73).
T1 construct: made in house; host or cells: Sf9 insect cells (baculovirus)
The experiment in a line: 33PanQinase Activity Assay, ALK. The note with it: recombinant human protein kinase, 1 μM [γ-33P]-ATP, 30° C. 80 minutes. It counts as biochemical. As for the experimental part:
(§1) The effect of the thioether derivatives 8a-v and 9a-i was tested on recombinant, human protein kinases. All protein kinases were expressed in Sf9 insect cells as human recombinant GST-fusion proteins or as His-tagged proteins by means of the baculovirus expression system. Protein kinases were purified by affinity chromatography using either GSH-agarose or Ni-NTH-agarose. The purity and identity of each was checked by SDS-PAGE/silver staining and by western blot analysis with specific antibodies.
(§2) A proprietary protein kinase assay (^33PanQinase® Activity Assay) was used for measuring the kinase activity. All kinase assays were performed in 96-well FlashPlates™ in a 50 μl reaction volume. The assay for all enzymes contained 60 mM HEPES-NaOH, pH 7.5, 3 mM MgCl2, 3 mM MnCl2, 3 μM Na-orthovanadate, 1.2 mM DTT, 50 μg/ml PEG20000 and 1 μM [γ-^33P]-ATP (approx. 5×10^5 cpm per well).
(§3) The reaction cocktails were incubated at 30° C. for 80 minutes. The reaction was stopped with 50 μl of 2% (v/v) H3PO4, plates were aspirated and washed two times with 200 μl of 0.9% (w/v) NaCl. Incorporation of ^33Pi was determined with a microplate scintillation counter. All assays were performed with a BeckmanCoulter/Sagian robotic system.

Data set [2] addresses T2, AXL (Homo sapiens, UniProt P30530).
T2 construct: made in house; host or cells: Sf9 insect cells (baculovirus)
T2 sequence (P30530 26-894): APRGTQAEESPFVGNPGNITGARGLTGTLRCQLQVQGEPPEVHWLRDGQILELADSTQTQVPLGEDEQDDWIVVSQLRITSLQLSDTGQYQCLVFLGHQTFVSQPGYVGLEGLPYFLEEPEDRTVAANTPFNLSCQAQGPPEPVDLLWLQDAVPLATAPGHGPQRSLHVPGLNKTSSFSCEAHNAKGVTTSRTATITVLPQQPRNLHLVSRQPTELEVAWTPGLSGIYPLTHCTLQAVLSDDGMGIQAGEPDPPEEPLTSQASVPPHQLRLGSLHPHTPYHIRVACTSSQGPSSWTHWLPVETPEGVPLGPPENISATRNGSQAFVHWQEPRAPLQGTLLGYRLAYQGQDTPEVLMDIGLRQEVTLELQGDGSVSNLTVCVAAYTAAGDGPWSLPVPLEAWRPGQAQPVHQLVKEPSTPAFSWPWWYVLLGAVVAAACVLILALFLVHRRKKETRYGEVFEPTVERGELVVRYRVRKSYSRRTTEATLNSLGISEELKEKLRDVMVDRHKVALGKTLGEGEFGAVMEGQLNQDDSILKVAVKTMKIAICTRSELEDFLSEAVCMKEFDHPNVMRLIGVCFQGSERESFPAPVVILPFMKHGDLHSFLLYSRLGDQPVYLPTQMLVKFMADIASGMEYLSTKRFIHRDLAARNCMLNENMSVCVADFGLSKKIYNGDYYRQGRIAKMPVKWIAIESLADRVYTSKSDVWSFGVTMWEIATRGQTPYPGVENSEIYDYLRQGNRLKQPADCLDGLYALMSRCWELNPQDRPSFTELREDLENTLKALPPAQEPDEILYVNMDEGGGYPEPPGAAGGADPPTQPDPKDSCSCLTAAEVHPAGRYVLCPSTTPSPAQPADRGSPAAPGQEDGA
The experiment in a line: 33PanQinase Activity Assay, AXL. It is filed as biochemical. The following applies: recombinant human protein kinase, 1 μM [γ-33P]-ATP, 30° C. 80 minutes. The method, then:
as §1, §2, §3

Data set [3] addresses T3, KIT wt (Homo sapiens, UniProt P10721).
T3 construct: made in house; host or cells: Sf9 insect cells (baculovirus)
The experiment in a line: 33PanQinase Activity Assay, KIT wt. It is filed as biochemical. The following applies: recombinant human protein kinase, 1 μM [γ-33P]-ATP, 30° C. 80 minutes. The method, then:
as §1, §2, §3

In data set [4] the target is T4, FAK (Homo sapiens, UniProt Q05397).
T4 construct: made in house; host or cells: Sf9 insect cells (baculovirus)
T4 sequence (Q05397 whole entry): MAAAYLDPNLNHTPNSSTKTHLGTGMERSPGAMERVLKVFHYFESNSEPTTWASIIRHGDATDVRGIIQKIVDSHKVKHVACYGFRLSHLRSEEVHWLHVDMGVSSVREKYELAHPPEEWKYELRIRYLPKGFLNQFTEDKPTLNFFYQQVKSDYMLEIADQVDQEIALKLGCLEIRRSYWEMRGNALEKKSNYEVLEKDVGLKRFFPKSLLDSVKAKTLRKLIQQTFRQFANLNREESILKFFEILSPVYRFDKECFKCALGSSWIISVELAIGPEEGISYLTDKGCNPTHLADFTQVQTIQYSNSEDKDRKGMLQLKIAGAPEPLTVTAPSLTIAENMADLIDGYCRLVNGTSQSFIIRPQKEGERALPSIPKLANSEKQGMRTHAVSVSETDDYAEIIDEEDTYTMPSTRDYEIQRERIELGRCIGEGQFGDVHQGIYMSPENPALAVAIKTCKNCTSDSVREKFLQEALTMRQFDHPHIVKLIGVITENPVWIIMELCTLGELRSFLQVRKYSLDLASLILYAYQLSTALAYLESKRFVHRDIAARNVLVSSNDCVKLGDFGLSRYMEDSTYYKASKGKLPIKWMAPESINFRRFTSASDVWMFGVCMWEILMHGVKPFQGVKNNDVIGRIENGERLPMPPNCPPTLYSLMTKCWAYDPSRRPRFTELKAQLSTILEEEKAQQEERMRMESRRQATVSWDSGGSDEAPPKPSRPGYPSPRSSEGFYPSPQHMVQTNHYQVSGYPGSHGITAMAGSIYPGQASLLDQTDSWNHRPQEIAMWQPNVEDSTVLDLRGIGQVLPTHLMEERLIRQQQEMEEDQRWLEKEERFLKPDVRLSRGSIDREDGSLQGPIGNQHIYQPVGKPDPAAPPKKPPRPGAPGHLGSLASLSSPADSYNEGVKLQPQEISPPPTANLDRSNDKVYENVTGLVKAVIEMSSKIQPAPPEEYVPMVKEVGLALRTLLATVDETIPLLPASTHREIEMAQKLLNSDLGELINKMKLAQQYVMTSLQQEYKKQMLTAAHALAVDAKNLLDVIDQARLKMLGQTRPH
The experiment in a line: 33PanQinase Activity Assay, FAK. The note with it: recombinant human protein kinase, 1 μM [γ-33P]-ATP, 30° C. 80 minutes. It counts as biochemical. As for the experimental part: as §1, §2, §3

Data set [5] has as its target T5, SRC (Homo sapiens, UniProt P12931).
T5 construct: made in house; host or cells: Sf9 insect cells (baculovirus)
The experiment in a line: 33PanQinase Activity Assay, SRC. It is filed as biochemical. The note with it: recombinant human protein kinase, 1 μM [γ-33P]-ATP, 30° C. 80 minutes. As for the experimental part:
as §1, §2, §3

T5 sequence (P12931 whole entry): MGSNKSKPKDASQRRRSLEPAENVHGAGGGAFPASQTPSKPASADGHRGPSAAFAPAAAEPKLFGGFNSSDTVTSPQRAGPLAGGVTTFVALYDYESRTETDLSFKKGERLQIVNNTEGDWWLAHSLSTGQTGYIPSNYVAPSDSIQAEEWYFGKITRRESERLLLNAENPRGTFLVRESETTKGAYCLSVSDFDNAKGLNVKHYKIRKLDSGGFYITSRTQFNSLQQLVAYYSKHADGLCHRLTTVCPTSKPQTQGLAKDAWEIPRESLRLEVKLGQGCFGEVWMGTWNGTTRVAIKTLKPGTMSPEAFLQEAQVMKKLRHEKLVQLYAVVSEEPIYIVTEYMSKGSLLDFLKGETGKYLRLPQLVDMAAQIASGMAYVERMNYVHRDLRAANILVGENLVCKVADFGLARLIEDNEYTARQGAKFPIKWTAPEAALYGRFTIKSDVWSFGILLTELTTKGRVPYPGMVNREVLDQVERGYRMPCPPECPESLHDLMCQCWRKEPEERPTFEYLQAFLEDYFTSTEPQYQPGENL
T1 sequence (Q9UM73 19-1620): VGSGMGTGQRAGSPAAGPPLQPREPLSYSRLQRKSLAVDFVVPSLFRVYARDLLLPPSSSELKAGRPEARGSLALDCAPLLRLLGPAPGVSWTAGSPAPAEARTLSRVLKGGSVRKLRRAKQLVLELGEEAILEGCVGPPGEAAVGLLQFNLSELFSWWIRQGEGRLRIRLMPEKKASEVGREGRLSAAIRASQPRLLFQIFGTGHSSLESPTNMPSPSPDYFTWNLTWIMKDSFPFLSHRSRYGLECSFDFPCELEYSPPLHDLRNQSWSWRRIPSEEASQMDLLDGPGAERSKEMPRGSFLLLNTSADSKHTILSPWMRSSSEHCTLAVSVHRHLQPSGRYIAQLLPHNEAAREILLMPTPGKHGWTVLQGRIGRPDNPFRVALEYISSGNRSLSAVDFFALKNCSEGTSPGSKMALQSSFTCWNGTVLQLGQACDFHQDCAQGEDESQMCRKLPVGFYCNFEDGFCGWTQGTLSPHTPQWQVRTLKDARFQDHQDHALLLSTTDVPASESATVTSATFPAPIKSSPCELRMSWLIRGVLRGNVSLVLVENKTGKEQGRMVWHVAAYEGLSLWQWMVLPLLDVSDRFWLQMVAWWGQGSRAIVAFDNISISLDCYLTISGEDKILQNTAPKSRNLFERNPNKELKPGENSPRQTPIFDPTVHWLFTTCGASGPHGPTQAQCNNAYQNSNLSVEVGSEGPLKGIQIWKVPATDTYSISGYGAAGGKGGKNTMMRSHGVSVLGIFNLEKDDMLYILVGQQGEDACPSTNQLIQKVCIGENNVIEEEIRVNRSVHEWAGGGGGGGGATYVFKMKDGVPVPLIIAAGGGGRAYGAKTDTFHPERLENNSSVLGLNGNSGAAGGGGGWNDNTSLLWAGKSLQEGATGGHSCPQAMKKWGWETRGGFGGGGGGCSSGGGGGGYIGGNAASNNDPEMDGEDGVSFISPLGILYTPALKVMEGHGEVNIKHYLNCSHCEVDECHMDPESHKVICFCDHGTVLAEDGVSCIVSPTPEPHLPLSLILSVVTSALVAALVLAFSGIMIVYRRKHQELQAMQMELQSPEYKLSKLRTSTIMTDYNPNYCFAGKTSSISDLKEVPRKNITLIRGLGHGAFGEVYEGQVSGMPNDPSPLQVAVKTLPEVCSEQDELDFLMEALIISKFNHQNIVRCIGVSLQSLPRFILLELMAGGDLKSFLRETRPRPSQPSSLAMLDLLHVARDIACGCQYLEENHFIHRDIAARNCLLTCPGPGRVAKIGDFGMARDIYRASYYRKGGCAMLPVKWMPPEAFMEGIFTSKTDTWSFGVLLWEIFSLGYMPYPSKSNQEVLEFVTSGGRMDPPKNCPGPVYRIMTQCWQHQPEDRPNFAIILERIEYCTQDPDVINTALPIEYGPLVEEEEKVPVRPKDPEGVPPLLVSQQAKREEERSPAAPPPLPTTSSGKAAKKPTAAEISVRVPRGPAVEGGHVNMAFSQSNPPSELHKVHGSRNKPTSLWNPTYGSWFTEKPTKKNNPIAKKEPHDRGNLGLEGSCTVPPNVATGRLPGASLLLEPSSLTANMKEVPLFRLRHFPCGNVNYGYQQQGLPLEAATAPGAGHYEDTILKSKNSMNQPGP
T3 sequence (P10721 26-976): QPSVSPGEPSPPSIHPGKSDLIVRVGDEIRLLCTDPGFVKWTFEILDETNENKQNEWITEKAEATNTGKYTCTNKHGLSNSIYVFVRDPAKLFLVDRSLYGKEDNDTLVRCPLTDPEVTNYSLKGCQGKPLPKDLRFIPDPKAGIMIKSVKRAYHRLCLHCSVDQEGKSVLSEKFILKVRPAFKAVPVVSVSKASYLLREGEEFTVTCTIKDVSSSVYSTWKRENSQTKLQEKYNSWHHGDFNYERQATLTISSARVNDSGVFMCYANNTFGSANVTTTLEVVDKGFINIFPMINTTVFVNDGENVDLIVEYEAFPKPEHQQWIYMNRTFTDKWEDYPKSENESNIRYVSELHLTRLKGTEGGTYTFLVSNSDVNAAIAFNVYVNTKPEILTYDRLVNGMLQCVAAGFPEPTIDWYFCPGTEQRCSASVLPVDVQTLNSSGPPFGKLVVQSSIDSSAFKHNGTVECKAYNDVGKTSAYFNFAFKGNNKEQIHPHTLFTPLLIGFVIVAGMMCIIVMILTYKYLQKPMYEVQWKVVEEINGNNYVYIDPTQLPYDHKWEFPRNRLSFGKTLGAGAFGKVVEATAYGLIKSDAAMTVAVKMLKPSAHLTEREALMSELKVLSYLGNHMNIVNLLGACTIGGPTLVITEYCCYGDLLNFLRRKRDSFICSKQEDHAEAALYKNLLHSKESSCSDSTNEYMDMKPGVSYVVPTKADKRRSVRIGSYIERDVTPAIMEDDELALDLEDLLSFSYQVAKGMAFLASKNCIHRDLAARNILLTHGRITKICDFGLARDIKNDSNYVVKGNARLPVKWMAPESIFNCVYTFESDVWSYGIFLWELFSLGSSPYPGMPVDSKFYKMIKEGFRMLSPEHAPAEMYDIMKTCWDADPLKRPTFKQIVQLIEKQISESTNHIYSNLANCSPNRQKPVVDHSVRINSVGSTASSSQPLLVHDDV

Broadly, the IC50 is the point on the concentration scale where inhibition reaches its midpoint. Consider `Fc1ccc(-c2cc3ncnc(Sc4nnc(CN5CCOCC5)o4)c3s2)cc1` [Compound 8d, 4-{[5-({6-[4-Fluorophenyl]thieno[3,2-d]pyrimidin-4-yl}thio)-1,3,4-oxadiazol-2-yl]methyl}morpholine], for which the IC50 was found to be 5.59 µM in data set [1], 7.66 µM in data set [2] and 3.85 µM in data set [3].

One may read the melting point as the temperature, or range, at which the solid turns liquid. As for `COc1ccc(-c2cc3ncnc(Sc4nnc(-c5ccccc5)o4)c3s2)cc1` [Compound 8m, 2-{[6-(4-Methoxyphenyl)thieno[3,2-d]pyrimidin-4-yl]thio}-5-phenyl-1,3,4-oxadiazole], the melting point is 213 to 215 °C. Besides, the 50% inhibitory concentration (IC50) in data set [1] amounted to 0.97 µM. For the same molecule, the IC50 in data set [2] is 0.94 µM. Moreover, the IC50 in data set [4] is 0.83 µM. Moreover, the half-inhibitory concentration (IC50) in data set [5] worked out at 0.032 µM.

`Fc1ccc(-c2cc3ncnc(Sc4nnc(-c5ccccc5)o4)c3s2)cc1` [Compound 8a, 2-{[6-(4-Fluorophenyl)thieno[3,2-d]pyrimidin-4-yl]thio}-5-phenyl-1,3,4-oxadiazole] came in with a melting point of 223 °C. Moreover, the IC50 in data set [1] stood at 0.987 µM. Further, the 50% inhibitory concentration (IC50) in data set [2] came out at 3.16 µM. Further, the IC50 in data set [3] turned out to be 1.04 µM.

With `COc1ccc(-c2cc3ncnc(Sc4nnnn4C4CC4)c3s2)cc1` [Compound 9e], the half-maximal inhibitory concentration (IC50) amounted to 2.76 µM in data set [1], 9.76 µM in data set [2], 7.89 µM in data set [4] and 1.3 µM in data set [3].

`COc1ccc(-c2cc3ncnc(Sc4nnc(-c5ccc(Cl)cc5Cl)o4)c3s2)cc1` [Compound 8q, 2-(2,4-Dichlorophenyl)-5-{[6-(4-methoxyphenyl)thieno[3,2-d]pyrimidin-4-yl]thio}-1,3,4-oxadiazole] came in with a melting point of 213 to 215 °C. Further, the IC50 in data set [1] is 1.3 µM. Moreover, the 50% inhibitory concentration (IC50) in data set [2] came out at 2.2 µM. The IC50 in data set [4] came out at 1.5 µM. For the same molecule, the IC50 in data set [5] stood at 0.8 µM.

On to `COCCNc1nnc(Sc2ncnc3cc(-c4ccc(OC)cc4)sc23)s1` [Compound 9f], for which the IC50 in data set [1] worked out at 3.51 µM; in data set [2] it was 5.2 µM; in data set [4] it was 16.7 µM; in data set [3] it was 0.804 µM.

Regarding `COc1ccc(-c2cc3ncnc(Sc4n[nH]/c(=N\C5CC5)s4)c3s2)cc1` [Compound 9h], the concentration for half-maximal inhibition (IC50) is 2.72 µM in data set [1], 10.1 µM in data set [2], 10.5 µM in data set [4] and 0.873 µM in data set [3].

Consider `Fc1ccc(-c2cc3ncnc(Sc4nnc(-c5ccc6c(c5)OCO6)o4)c3s2)cc1` [Compound 9c], for which the half-maximal inhibitory concentration (IC50) worked out at 0.935 µM in data set [1], 6.56 µM in data set [2], 3.52 µM in data set [4] and 4.92 µM in data set [3].

`COc1ccc(-c2cc3nc(N)nc(Sc4nnc(-c5ccc(Cl)cc5)o4)c3s2)cc1` [Compound 8r, 4-{[5-(4-Chlorophenyl)-1,3,4-oxadiazol-2-yl]thio}-6-(4-methoxyphenyl)thieno[3,2-d]pyrimidin-2-amine] registered a melting point of 206 to 208 °C. Also, in data set [1], the IC50 was determined as 0.73 µM. The half-inhibitory concentration (IC50) in data set [2] was 1.2 µM. Besides, the IC50 in data set [4] was found to be 0.9 µM. Also, in data set [5], the IC50 worked out at 0.65 µM.

As for `Cc1nnc(Sc2ncnc3cc(-c4ccc(Cl)cc4)sc23)s1` [Compound 9i], the IC50 in data set [1] is 15 µM; in data set [2] it was 41.7 µM; in data set [4], over 100 µM; in data set [3], 1.25 µM.

For `O=C1CCCCCN1Cc1nnc(Sc2ncnc3cc(-c4ccc(Cl)cc4)sc23)o1` [Compound 9a], the IC50 in data set [1] worked out at 2.16 µM; in data set [2] it was 1.63 µM; in data set [4] it was 8.93 µM; in data set [3], 0.608 µM.

`Fc1ccc(-c2cc3ncnc(Sc4nnc(-c5ccncc5)o4)c3s2)cc1` [Compound 8b, 2-{[6-(4-Fluorophenyl)thieno[3,2-d]pyrimidin-4-yl]thio}-5-(pyridin-4-yl)-1,3,4-oxadiazole] showed a melting point of 232 °C. For the same molecule, the 50% inhibitory concentration (IC50) in data set [1] is 2.94 µM. The IC50 in data set [2] turned out to be 2.64 µM. For the same molecule, the half-inhibitory concentration (IC50) in data set [3] came out at 1.74 µM.

On to `Cn1nnnc1Sc1ncnc2cc(-c3ccc(F)cc3)sc12` [Compound 9d], for which the 50% inhibitory concentration (IC50) stood at 13.6 µM in data set [1], 28.9 µM in data set [2], 13.6 µM in data set [4] and 2.41 µM in data set [3].

For `COc1ccc(-c2cc3ncnc(Sc4nnnn4C)c3s2)cc1` [Compound 9g], the IC50 in data set [1] is 2.37 µM; in data set [2], 5.8 µM; in data set [4], 5.99 µM; in data set [3], 1.02 µM.

`c1ccc(-c2nc3c(Sc4nnc(-c5ccco5)o4)ncnc3[nH]2)cc1` [Compound 8u, 2-(Furan-2-yl)-5-[(8-phenyl-9H-purin-6-yl)thio]-1,3,4-oxadiazole] gave a melting point of 224 to 225 °C. Also, in data set [1], the half-inhibitory concentration (IC50) is 22 µM. In addition, in data set [2], the IC50 was determined as 40 µM. Besides, in data set [4], the IC50 is 23 µM. The IC50 in data set [5] is 11 µM.

For the molecule `COc1ccc(-c2cc3ncnc(Sc4nnc(-c5ccc(C(F)(F)F)cc5)o4)c3s2)cc1` [Compound 8o, 2-{[6-(4-Methoxyphenyl)thieno[3,2-d]pyrimidin-4-yl]thio}-5-[4-(trifluoro-methyl)phenyl]-1,3,4-oxadiazole], the melting point fell in the range of 227 to 228 °C. Moreover, the IC50 in data set [1] was determined as 0.88 µM. Also, the concentration for half-maximal inhibition (IC50) in data set [2] came out at 2.4 µM. For the same molecule, in data set [4], the IC50 came out at 1.7 µM. Moreover, the IC50 in data set [5] turned out to be 0.84 µM.

`c1ccc(Cc2nnc(Sc3ncnc4[nH]c(-c5ccccc5)nc34)o2)cc1` [Compound 8t, 2-Benzyl-5-[(8-phenyl-9H-purin-6-yl)thio]-1,3,4-oxadiazole] yielded a melting point of 198 to 199 °C. Also, the IC50 in data set [1] is 76 µM. The IC50 in data set [2] was over 100 µM. The IC50 in data set [4] came out at 43 µM. In addition, the IC50 in data set [5] worked out at 32 µM.

Turning to `COc1ccc(-c2cc3ncnc(Sc4nnc(-c5ccccc5C)o4)c3s2)cc1` [Compound 8p, 2-{[6-(4-methoxyphenyl)thieno[3,2-d]pyrimidin-4-yl]thio}-5-(o-tolyl)-1,3,4-oxadiazole], the melting point was in the range of 184 to 186 °C. In addition, the IC50 in data set [1] was 0.92 µM. The IC50 in data set [2] came to 1.9 µM. In data set [4], the IC50 was determined as 1.3 µM. In addition, the IC50 in data set [5] turned out to be 0.68 µM.

As for `Fc1ccc(-c2cc3ncnc(Sc4nnc(CN5CCCC5)o4)c3s2)cc1` [Compound 9b], the IC50 in data set [1] was determined as 3.03 µM; in data set [2], 6.09 µM; in data set [4], 15 µM; in data set [3], 6.48 µM.

`c1ccc(-c2nc3c(Sc4nnc(-c5ccncc5)o4)ncnc3[nH]2)cc1` [Compound 8s, 2-[(8-Phenyl-9H-purin-6-yl)thio]-5-(pyridin-4-yl)-1,3,4-oxadiazole] gave a melting point of 250 to 251 °C. The IC50 in data set [1] was 27 µM. Also, the concentration for half-maximal inhibition (IC50) in data set [2] was 24 µM. In data set [4], the half-inhibitory concentration (IC50) was 26 µM. The IC50 in data set [5] turned out to be 19 µM.

`COc1ccc(-c2cc3ncnc(Sc4nnc(-c5ccc(Cl)cc5)o4)c3s2)cc1` [Compound 8n, 2-(4-Chlorophenyl)-5-{[6-(4-methoxyphenyl)thieno[3,2-d]pyrimidin-4-yl]thio}-1,3,4-oxadiazole] yielded a melting point of 221 to 223 °C. The IC50 in data set [1] was 1 µM. Further, the IC50 in data set [2] turned out to be 2.7 µM. In addition, the IC50 in data set [4] worked out at 1.4 µM. Also, in data set [5], the IC50 turned out to be 0.55 µM.
